No end group written: not given here.

This note sets out measurements from patent publication US7399826B1, “Peptide for promoting healing of fractures” (priority 2003, dated 2008).

The subject of this data set is ulnar osteotomies in New Zealand rabbits. The data set can be described thus: Ulnar osteotomy fracture healing study in rabbits. The class given is in vivo. The conditions noted are these: all rabbits (study and control groups); four-week study. The method, then:
Ulnar osteotomies were carried out in forty, three-month-old New Zealand rabbits. Half of the rabbits were placed in a study group while the other half was placed in a control group. All the rabbits were anesthetized using intramuscular ketamine 35 mg/kg body weight mixed with Xylazine 5 mg/kg body weight and an ophthalmic band with gentamycin ophthalmic ointment. A dose of prophylactic intramuscular cefuraxmine 25 mg/kg body weight was also administered. The forelimb was shaved and prepped in a sterile fashion. Through a posterior incision, the muscles were retracted and the shaft of the ulna was identified. Osteotomy was carried out equidistant between the olecranon and the wrist joint. The osteotomy was irrigated with normal saline. The wound was closed in layers and dressed with betadine and opsite spray. The animals were kept together in similar conditions. On the third post-operative day, the study group was injected with about 2.5-5 mg/kg of the peptide, synthesized as described above, in 0.25 ml of sterile water around the osteotomy site, while the control group received 0.25 ml of normal saline at the osteotomy site. Every week, five rabbits in the control group and five in the study group were sacrificed and their limbs were dissected and stored in 2% formalin. The study was carried out for four weeks. […]

Regarding “MIFVKTLTGKTIL [SHMSP, Met-Ile-Phe-Val-Lys-Thr-Leu-Thr-Gly-Lys-Thr-Ile-Leu]”, the “tolerability (wound infections, deaths)” value is “no wound infections or deaths”.
